{
  "source": "paper PMC3264828",
  "about": "(European Journal of Medicinal Chemistry, 2011)",
  "key": {"D1-like receptors [1]": {"molecular_target": "D1-like receptors (Sus scrofa, UniProt P50130)", "sequence (P50130 whole entry)": "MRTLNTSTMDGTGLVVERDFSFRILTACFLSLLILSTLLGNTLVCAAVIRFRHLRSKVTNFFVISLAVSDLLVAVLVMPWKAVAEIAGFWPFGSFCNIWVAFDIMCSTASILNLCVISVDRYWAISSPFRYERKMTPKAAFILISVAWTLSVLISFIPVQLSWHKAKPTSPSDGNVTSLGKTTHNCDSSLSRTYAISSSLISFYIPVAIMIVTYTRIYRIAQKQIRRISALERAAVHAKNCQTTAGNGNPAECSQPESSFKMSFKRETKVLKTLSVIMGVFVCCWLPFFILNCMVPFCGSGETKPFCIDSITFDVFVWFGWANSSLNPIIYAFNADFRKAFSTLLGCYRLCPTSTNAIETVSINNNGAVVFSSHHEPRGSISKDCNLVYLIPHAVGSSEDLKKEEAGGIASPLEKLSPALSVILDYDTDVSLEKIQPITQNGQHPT", "test": "Competition binding with [3H]SCH-23390 in porcine striatal homogenates", "details": "porcine striatal preparations; for decrease in D1 affinity compared to 2: relative to DOX (2)"}, "[2]": {"molecular_target": "D1 dopamine receptor mutant L190A (Homo sapiens, UniProt P21728, L190A)", "sequence (P21728 whole entry L190A)": "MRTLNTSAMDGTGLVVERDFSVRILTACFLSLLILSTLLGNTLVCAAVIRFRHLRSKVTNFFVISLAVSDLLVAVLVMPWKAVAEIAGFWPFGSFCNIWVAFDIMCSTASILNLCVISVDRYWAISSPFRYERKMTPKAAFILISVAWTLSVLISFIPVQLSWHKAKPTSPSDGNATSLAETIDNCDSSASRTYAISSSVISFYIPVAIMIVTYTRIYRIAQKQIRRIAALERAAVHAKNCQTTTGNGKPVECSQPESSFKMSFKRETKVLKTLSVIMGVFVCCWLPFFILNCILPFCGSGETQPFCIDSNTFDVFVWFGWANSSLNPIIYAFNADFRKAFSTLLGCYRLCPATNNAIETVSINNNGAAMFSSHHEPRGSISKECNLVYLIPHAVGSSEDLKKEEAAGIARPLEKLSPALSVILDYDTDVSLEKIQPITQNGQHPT", "test": "Mutagenesis experiments of the D1 dopamine receptor", "type": "binding", "details": "residue in extracellular loop 2; to be published elsewhere"}, "D1 receptor": {"test_system": "D1 receptor", "details": "cited from earlier work"}, "D1": {"test_system": "D1", "details": "2-substituted DHX analogues; cited from earlier work"}, "prefrontal cortex": {"test_system": "prefrontal cortex", "details": "cited from earlier work"}, "D1-like receptors [3]": {"test_system": "D1-like receptors", "details": "cited from earlier work"}, "[4]": {"test_system": "in vivo model of Parkinson's disease", "details": "African green monkeys; cited from earlier work"}, "aged monkeys": {"test_system": "aged monkeys", "details": "cited from earlier work"}},
  "data": [
    {"smiles": "Cl.Oc1cc2c(cc1O)[C@H]1c3cc(C(F)(F)F)ccc3CN[C@@H]1CO2", "note": "(racemic) [5d, (±)-Trans-2,3-dihydroxy-11-trifluoromethyl-6a,7,8,12b-tetrahydro-6H-chromeno[3,4-c]isoquinoline hydrochloride]", "values": [
      {"measurement": "decrease in D1 affinity compared to the methyl substituted compound 5a", "setting": "D1-like receptors [1]; relative to 5a", "value": "almost four-fold decrease"},
      {"measurement": "decrease in D1 affinity compared to 2", "setting": "D1-like receptors [1]", "value": 22, "unit": "fold"}
    ]},
    {"smiles": "Cc1ccc2c(c1)[C@@H]1c3cc(O)c(O)cc3OC[C@H]1NC2.Cl", "note": "(racemic) [5a, (±)-Trans-11-methyl-2,3-dihydroxy-6a,7,8,12b-tetrahydro-6H-chromeno[3,4-c]isoquinoline hydrobromide]", "values": [
      {"measurement": "decrease in D1 affinity compared to 2", "setting": "D1-like receptors [1]", "value": "nearly six-fold decrease"},
      {"measurement": "affinity at mutant L190A of the D1 dopamine receptor", "setting": "[2]", "value": "significantly increased affinity"}
    ]},
    {"smiles": "Oc1cc2c(cc1O)C1c3ccccc3CNC1CO2", "note": "(single isomer, unassigned; (+)) [(+)-2]", "values": [
      {"measurement": "efficacy for activation of the D1 receptor", "setting": "D1 receptor; compared with dopamine", "value": "higher efficacy than dopamine"}
    ]},
    {"smiles": "CCc1ccc2c(c1)[C@@H]1c3cc(O)c(O)cc3CC[C@H]1NC2", "note": "[compound 4]", "values": [
      {"measurement": "D1 affinity in comparison to DHX", "setting": "D1", "value": "affinity lower than the unsubstituted compound"}
    ]},
    {"smiles": "Cc1ccc2c(c1)[C@@H]1c3cc(O)c(O)cc3CC[C@H]1NC2", "note": "[compound 3]", "values": [
      {"measurement": "D1 affinity in comparison to DHX", "setting": "D1", "value": "did not significantly reduce the affinity"},
      {"measurement": "affinity at mutant L190A of the D1 dopamine receptor", "setting": "[2]", "value": "but not for 3"}
    ]},
    {"smiles": "Oc1cc2c(cc1O)[C@H]1c3ccccc3CN[C@@H]1CC2", "note": "(relative stereo) [compound 1, trans-10,11-dihydroxy-5,6,6a,7,8,12b-hexahydrobenzo[a]phenanthridine]", "values": [
      {"measurement": "blood flow in the prefrontal cortex", "setting": "prefrontal cortex", "value": "increase blood flow in the prefrontal cortex"},
      {"measurement": "affinity for D1-like receptors over D2-like receptors", "setting": "D1-like receptors [3]", "value": "ten-fold higher affinity"},
      {"measurement": "dopamine D1 agonist character", "setting": "D1 receptor", "value": "potent dopamine D1 full agonist"},
      {"measurement": "therapeutic potential in an in vivo model of Parkinson's disease", "setting": "[4]", "value": "significant therapeutic potential"},
      {"measurement": "working memory", "setting": "aged monkeys", "value": "improve working memory in aged monkeys"}
    ]}
  ]
}
